What was measured:
Test in all cases: Drug affinity chromatography with c-ponatinib and LC-MS/MS (ponatinib interactome)
Type in all cases: binding
[1] = molecular target: T1, proteins of U2OS cell lysate (Homo sapiens, UniProt Q9HAV4); conditions: captured protein XPO5, Rank 207
T1 construct: Proteins enriched by c-ponatinib from U2OS cell lysate; endogenous in cells; host or cells: U2OS cell lysate
In short: (§1)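 Proteins were identified by nano-UPLC–MS/MS after elution with formic acid and trypsin digestion. They were captured from U2OS lysate (2 mg protein per pulldown, NP-40 buffer) on amine-coupled NHS beads during a 2 h incubation at 4 °C.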

[2] = molecular target: T2, proteins of U2OS cell lysate (Homo sapiens, UniProt P09669); conditions: COX6C, Cytochrome c oxidase subunit 6C
T2 construct: Proteins enriched by c-ponatinib from U2OS cell lysate; endogenous in cells; host or cells: U2OS cell lysate
T2 sequence (P09669 whole entry): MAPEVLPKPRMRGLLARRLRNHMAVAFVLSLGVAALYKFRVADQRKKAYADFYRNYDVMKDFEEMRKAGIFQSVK
In short: as §1

[3] = molecular target: T3, proteins of U2OS cell lysate (Homo sapiens, UniProt Q92973); conditions: TNPO1, Transportin-1
T3 construct: Proteins enriched by c-ponatinib from U2OS cell lysate; endogenous in cells; host or cells: U2OS cell lysate
T3 sequence (Q92973 whole entry): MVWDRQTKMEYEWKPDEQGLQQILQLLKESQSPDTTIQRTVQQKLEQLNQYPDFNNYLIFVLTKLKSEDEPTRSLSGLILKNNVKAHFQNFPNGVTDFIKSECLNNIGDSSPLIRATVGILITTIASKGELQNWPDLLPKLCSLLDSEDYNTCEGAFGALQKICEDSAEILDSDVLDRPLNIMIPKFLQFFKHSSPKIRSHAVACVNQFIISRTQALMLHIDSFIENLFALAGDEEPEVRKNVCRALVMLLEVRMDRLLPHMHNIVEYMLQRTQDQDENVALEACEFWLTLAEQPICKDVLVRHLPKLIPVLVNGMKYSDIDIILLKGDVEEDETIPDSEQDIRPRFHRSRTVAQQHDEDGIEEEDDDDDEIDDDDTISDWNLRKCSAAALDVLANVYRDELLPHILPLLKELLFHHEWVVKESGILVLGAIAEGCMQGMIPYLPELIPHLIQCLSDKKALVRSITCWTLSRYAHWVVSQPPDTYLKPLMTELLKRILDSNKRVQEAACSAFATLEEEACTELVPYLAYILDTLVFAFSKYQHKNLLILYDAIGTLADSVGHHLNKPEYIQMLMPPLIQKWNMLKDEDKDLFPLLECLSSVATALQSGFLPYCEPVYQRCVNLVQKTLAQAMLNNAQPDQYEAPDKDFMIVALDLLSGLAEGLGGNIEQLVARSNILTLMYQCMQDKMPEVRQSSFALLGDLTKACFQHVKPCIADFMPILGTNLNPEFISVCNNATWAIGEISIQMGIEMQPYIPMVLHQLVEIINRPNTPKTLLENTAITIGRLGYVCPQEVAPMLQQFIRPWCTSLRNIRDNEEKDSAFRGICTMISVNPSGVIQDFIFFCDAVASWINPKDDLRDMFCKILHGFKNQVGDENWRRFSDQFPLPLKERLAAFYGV
In short: as §1

[4] = molecular target: T4, proteins of U2OS cell lysate (Homo sapiens, UniProt P31946); conditions: YWHAB, 14-3-3 protein beta/alpha
T4 construct: Proteins enriched by c-ponatinib from U2OS cell lysate; endogenous in cells; host or cells: U2OS cell lysate
In short: as §1

[5] = molecular target: T5, proteins of U2OS cell lysate (Homo sapiens, UniProt P46783); conditions: RPS10;RPS10P5, 40S ribosomal protein S10
T5 construct: Proteins enriched by c-ponatinib from U2OS cell lysate; endogenous in cells; host or cells: U2OS cell lysate
In short: as §1

[6] = molecular target: T6, proteins of U2OS cell lysate (Homo sapiens, UniProt A1L0T0); conditions: ILVBL, Acetolactate synthase-like protein
T6 construct: Proteins enriched by c-ponatinib from U2OS cell lysate; endogenous in cells; host or cells: U2OS cell lysate
In short: as §1

[7] = molecular target: T7, proteins of U2OS cell lysate (Homo sapiens, UniProt P26641); conditions: EEF1G, Elongation factor 1-gamma
T7 construct: Proteins enriched by c-ponatinib from U2OS cell lysate; endogenous in cells; host or cells: U2OS cell lysate
In short: as §1

[8] = molecular target: T8, proteins of U2OS cell lysate (Homo sapiens, UniProt P61964); conditions: WDR5, WD repeat-containing protein 5
T8 construct: Proteins enriched by c-ponatinib from U2OS cell lysate; endogenous in cells; host or cells: U2OS cell lysate
In short: as §1

[9] = molecular target: T9, proteins of U2OS cell lysate (Homo sapiens, UniProt Q6PJG6); conditions: BRAT1, BRCA1-associated ATM activator 1
T9 construct: Proteins enriched by c-ponatinib from U2OS cell lysate; endogenous in cells; host or cells: U2OS cell lysate
T9 sequence (Q6PJG6 whole entry): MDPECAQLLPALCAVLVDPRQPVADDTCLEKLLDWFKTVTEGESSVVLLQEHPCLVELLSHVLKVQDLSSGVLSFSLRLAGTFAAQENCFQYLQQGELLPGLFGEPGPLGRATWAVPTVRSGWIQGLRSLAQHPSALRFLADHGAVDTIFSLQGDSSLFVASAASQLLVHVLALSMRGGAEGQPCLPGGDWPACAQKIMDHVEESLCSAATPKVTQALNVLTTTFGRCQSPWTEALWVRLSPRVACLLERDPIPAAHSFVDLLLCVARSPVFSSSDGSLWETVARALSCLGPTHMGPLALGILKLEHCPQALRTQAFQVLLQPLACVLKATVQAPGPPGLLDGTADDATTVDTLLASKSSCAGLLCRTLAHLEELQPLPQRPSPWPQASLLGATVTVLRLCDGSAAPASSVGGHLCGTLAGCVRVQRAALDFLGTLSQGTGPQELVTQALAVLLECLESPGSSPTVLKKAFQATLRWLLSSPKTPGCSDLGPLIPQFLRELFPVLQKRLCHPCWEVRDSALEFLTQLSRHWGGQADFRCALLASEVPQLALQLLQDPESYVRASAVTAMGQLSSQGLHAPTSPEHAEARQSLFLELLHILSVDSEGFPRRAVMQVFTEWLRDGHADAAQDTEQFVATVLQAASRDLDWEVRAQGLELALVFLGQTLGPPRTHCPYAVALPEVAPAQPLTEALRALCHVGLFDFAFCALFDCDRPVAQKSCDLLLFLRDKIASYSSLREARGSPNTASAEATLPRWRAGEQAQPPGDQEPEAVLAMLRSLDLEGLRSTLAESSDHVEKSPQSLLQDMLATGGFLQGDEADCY
In short: as §1

[10] = molecular target: T10, proteins of U2OS cell lysate (Homo sapiens, UniProt Q09028); conditions: RBBP4;RBBP7, Histone-binding protein RBBP4
T10 construct: Proteins enriched by c-ponatinib from U2OS cell lysate; endogenous in cells; host or cells: U2OS cell lysate
In short: as §1

[11] = molecular target: T11, proteins of U2OS cell lysate (Homo sapiens, UniProt P51617); conditions: IRAK1, Interleukin-1 receptor-associated kinase 1
T11 construct: Proteins enriched by c-ponatinib from U2OS cell lysate; endogenous in cells; host or cells: U2OS cell lysate
T11 sequence (P51617 whole entry): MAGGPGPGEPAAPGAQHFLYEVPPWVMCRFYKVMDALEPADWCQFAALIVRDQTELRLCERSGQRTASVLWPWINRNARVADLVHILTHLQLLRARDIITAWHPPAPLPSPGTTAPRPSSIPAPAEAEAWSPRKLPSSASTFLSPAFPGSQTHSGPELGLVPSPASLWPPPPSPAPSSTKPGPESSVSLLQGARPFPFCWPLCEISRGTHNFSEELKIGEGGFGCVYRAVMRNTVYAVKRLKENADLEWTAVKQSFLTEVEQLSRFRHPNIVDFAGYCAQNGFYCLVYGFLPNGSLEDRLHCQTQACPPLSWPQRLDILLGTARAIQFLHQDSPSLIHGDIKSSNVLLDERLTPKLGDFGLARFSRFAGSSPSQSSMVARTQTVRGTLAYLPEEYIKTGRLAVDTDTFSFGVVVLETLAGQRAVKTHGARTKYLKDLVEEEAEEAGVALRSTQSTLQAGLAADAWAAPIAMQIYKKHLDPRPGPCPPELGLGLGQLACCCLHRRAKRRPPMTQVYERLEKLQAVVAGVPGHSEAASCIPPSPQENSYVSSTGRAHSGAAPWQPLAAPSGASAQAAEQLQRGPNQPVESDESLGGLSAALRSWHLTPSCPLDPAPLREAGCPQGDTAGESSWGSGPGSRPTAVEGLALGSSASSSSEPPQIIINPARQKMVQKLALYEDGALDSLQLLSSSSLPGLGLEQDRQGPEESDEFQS
In short: as §1

[12] = molecular target: T12, proteins of U2OS cell lysate (Homo sapiens, UniProt O76071); conditions: CIAO1, Probable cytosolic iron-sulfur protein assembly protein CIAO1
T12 construct: Proteins enriched by c-ponatinib from U2OS cell lysate; endogenous in cells; host or cells: U2OS cell lysate
T12 sequence (O76071 whole entry): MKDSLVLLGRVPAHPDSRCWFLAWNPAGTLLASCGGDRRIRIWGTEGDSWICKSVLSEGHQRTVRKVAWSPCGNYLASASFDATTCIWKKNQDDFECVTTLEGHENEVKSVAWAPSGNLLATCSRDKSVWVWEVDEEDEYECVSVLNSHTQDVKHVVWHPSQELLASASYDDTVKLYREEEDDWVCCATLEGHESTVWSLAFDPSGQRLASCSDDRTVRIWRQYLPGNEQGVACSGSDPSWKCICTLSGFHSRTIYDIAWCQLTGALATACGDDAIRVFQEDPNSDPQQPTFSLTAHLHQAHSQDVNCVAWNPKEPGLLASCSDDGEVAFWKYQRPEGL
In short: as §1

[13] = molecular target: T13, proteins of U2OS cell lysate (Homo sapiens, UniProt P11021); conditions: HSPA5, 78 kDa glucose-regulated protein
T13 construct: Proteins enriched by c-ponatinib from U2OS cell lysate; endogenous in cells; host or cells: U2OS cell lysate
T13 sequence (P11021 19-654): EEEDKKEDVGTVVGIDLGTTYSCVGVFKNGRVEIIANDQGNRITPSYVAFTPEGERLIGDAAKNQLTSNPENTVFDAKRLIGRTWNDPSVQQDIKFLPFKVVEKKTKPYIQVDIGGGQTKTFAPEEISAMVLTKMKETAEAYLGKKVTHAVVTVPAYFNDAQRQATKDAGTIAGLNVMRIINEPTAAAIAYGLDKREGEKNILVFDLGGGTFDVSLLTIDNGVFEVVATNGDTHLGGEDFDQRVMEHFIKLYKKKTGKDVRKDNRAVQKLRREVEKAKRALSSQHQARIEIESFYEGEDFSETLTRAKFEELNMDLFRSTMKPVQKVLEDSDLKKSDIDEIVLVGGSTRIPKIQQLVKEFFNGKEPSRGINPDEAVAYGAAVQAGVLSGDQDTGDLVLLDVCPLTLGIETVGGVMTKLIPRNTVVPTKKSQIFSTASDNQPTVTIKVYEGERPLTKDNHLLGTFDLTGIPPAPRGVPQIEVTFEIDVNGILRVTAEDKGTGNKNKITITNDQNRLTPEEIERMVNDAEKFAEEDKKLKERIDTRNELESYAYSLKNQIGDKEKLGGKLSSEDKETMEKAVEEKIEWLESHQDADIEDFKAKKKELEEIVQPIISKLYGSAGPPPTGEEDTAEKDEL
In short: as §1

[14] = molecular target: T14, proteins of U2OS cell lysate (Homo sapiens, UniProt O43143); conditions: DHX15, Putative pre-mRNA-splicing factor ATP-dependent RNA helicase DHX15
T14 construct: Proteins enriched by c-ponatinib from U2OS cell lysate; endogenous in cells; host or cells: U2OS cell lysate
T14 sequence (O43143 whole entry): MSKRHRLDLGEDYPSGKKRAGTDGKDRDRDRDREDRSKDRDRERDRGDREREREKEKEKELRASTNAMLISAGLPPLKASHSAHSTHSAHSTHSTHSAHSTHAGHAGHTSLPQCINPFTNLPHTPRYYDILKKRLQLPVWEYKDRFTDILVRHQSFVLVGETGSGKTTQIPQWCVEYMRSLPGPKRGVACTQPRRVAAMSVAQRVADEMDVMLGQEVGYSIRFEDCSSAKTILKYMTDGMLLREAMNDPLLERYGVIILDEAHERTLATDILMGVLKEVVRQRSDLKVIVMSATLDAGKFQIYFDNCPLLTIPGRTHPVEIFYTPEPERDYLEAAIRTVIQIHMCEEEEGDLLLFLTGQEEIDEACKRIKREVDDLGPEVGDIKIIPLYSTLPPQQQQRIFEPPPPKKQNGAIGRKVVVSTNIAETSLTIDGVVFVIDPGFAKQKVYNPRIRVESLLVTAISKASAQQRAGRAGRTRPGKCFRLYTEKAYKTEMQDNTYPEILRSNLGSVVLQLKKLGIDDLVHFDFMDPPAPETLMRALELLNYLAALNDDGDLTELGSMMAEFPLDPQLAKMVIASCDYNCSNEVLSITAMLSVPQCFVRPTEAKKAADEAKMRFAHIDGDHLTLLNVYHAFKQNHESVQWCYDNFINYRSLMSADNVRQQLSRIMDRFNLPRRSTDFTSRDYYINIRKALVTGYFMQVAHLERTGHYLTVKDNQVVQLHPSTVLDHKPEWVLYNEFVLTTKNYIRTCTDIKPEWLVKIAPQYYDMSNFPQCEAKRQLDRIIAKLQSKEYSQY
In short: as §1

[15] = molecular target: T15, proteins of U2OS cell lysate (Homo sapiens, UniProt P63104); conditions: YWHAZ, 14-3-3 protein zeta/delta
T15 construct: Proteins enriched by c-ponatinib from U2OS cell lysate; endogenous in cells; host or cells: U2OS cell lysate
In short: as §1

[16] = molecular target: T16, proteins of U2OS cell lysate (Homo sapiens, UniProt Q13268); conditions: DHRS2, Dehydrogenase/reductase SDR family member 2, mitochondrial
T16 construct: Proteins enriched by c-ponatinib from U2OS cell lysate; endogenous in cells; host or cells: U2OS cell lysate
T16 sequence (Q13268 24-280): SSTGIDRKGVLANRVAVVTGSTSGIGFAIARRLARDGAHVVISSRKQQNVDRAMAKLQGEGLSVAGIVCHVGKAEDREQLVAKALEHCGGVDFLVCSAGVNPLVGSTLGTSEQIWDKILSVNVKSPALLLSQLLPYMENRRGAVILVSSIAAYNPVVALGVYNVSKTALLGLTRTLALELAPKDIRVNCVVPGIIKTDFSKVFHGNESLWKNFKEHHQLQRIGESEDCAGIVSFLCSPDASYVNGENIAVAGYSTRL
In short: as §1

[17] = molecular target: T17, proteins of U2OS cell lysate (Homo sapiens, UniProt P27708); conditions: CAD, CAD protein
T17 construct: Proteins enriched by c-ponatinib from U2OS cell lysate; endogenous in cells; host or cells: U2OS cell lysate
In short: as §1

[18] = molecular target: T18, proteins of U2OS cell lysate (Homo sapiens, UniProt P05556); conditions: ITGB1, Integrin beta-1
T18 construct: Proteins enriched by c-ponatinib from U2OS cell lysate; endogenous in cells; host or cells: U2OS cell lysate
In short: as §1

[19] = molecular target: T19, proteins of U2OS cell lysate (Homo sapiens, UniProt P07355); conditions: ANXA2;ANXA2P2, Annexin A2
T19 construct: Proteins enriched by c-ponatinib from U2OS cell lysate; endogenous in cells; host or cells: U2OS cell lysate
T19 sequence (P07355 whole entry): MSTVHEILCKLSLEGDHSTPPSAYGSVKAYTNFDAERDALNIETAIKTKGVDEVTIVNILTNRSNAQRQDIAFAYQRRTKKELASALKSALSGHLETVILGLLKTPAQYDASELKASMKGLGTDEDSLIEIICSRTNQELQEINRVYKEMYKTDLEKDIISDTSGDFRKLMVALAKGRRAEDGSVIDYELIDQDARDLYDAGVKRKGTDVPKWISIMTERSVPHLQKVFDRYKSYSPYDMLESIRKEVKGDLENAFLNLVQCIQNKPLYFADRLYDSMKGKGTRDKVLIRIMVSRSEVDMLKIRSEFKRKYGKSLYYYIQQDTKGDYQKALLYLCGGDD
In short: as §1

SMILES | Average LFQ intensity [1] | Average LFQ PON_WT [2] | Average LFQ PON_WT [3] | Average LFQ PON_WT [4] | Average LFQ PON_WT [5] | Average LFQ PON_WT [6] | Average LFQ PON_WT [7] | Average LFQ PON_WT [8] | Average LFQ PON_WT [9] | Average LFQ PON_WT [10] | Average LFQ PON_WT [11] | Average LFQ PON_WT [12] | Average LFQ PON_WT [13] | Average LFQ PON_WT [14] | Average LFQ PON_WT [15] | Average LFQ PON_WT [16] | Average LFQ PON_WT [17] | Average LFQ PON_WT [18] | Average LFQ PON_WT [19]
Cc1ccc(C(=O)Nc2ccc(CN3CCN(CCCN)CC3)c(C(F)(F)F)c2)cc1C#Cc1cnc2cccnn12 [c-ponatinib, reference compound] | 21.7615 | – | – | – | – | – | – | – | – | – | – | – | – | – | – | – | – | – | –
Cc1ccc(C(=O)Nc2ccc(CN3CCN(C)CC3)c(C(F)(F)F)c2)cc1C#Cc1cnc2cccnn12 [PON] | – | 20.8234 | 24.7772 | 23.524 | 21.6692 | 23.3851 | 25.0677 | 20.2851 | 19.9568 | 21.1647 | 23.3938 | 21.1391 | 23.5505 | 20.8395 | 24.9214 | 24.0178 | 21.3466 | 20.3187 | 23.7363
